Results from article PMC9116130 (Biochemical pharmacology, 2020).
Where a SMILES comes first, the peptide text is derived from it. Bridges are numbered along the chain shown (N, C = ends).

Legend:
hNaV1.5 = hNaV1.5 (Homo sapiens, UniProt Q14524); assay: Two-electrode voltage-clamp on Xenopus laevis oocytes expressing NaV1.5; conditions: for inhibition at 100 µM: read-out: Maximum % inhibition NaV1.5
rNaV1.4 = rNaV1.4 (Rattus norvegicus, UniProt P15390); assay: Two-electrode voltage-clamp on Xenopus laevis oocytes expressing NaV1.4; conditions: for inhibition at 100 µM: read-out: Maximum % inhibition NaV1.4, peptide at 100 μM; for Maximum % inhibition NaV1.4: peptide at 100 μM, 100 µM
rNaV1.4, sequence (P15390 whole entry): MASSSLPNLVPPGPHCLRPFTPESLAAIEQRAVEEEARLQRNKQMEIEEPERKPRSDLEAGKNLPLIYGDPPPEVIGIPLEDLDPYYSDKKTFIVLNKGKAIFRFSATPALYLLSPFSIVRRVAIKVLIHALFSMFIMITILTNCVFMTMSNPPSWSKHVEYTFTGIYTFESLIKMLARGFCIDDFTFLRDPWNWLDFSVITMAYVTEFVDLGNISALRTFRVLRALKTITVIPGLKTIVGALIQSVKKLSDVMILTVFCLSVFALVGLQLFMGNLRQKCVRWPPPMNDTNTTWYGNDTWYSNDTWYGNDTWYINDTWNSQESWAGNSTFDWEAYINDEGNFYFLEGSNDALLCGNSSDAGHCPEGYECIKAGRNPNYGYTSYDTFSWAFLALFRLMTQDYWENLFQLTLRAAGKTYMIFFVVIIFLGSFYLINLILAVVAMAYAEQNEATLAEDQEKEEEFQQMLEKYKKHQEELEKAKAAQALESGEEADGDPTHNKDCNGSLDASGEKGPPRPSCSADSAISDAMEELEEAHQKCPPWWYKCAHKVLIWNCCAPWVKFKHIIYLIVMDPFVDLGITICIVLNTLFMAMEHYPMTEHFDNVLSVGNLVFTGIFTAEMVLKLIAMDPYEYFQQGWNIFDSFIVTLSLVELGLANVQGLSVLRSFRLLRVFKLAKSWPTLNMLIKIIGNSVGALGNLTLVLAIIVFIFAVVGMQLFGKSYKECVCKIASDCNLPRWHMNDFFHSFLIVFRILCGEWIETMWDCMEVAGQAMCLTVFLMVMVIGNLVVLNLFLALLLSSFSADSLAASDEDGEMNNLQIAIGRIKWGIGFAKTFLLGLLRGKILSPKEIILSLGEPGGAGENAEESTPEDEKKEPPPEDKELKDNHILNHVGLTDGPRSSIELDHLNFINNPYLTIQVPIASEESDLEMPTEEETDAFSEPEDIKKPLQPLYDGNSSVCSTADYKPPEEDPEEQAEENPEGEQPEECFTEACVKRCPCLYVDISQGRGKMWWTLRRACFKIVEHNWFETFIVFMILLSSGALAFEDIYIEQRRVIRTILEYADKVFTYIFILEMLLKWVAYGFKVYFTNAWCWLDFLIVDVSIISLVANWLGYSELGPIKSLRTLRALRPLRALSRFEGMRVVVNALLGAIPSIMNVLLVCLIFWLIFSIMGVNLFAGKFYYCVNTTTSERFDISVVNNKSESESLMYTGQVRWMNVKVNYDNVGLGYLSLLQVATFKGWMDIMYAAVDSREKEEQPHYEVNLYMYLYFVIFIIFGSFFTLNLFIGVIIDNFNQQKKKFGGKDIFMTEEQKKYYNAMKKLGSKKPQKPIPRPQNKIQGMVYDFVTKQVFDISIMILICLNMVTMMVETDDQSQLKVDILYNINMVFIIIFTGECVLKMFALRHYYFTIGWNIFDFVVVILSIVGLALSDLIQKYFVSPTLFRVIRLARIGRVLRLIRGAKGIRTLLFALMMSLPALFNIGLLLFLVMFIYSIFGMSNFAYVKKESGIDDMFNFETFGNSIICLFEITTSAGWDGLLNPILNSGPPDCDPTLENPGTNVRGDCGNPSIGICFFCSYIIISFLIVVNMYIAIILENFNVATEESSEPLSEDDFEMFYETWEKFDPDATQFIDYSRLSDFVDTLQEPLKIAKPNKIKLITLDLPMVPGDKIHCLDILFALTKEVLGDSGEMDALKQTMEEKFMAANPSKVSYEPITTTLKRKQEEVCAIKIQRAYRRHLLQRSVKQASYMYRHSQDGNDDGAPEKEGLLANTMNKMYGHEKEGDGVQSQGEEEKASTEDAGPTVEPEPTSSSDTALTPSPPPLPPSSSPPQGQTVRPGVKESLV
rNaV1.4, sequence (Q00954 19-218, further chain): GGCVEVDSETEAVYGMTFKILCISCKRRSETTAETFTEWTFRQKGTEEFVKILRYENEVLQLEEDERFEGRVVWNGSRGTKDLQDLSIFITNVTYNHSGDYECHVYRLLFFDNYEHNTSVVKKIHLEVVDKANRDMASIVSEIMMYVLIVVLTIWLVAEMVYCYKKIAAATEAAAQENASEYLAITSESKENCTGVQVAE

rNaV1.2 = rNaV1.2 (Rattus norvegicus, UniProt P04775); assay: Two-electrode voltage-clamp on Xenopus laevis oocytes expressing NaV1.2; conditions: for inhibition at 100 µM: read-out: Maximum % inhibition NaV1.2, peptide at 100 μM
mNaV1.6 = mNaV1.6 (Mus musculus, UniProt Q9WTU3); assay: Two-electrode voltage-clamp on Xenopus laevis oocytes expressing NaV1.6; conditions: for inhibition at 100 µM: read-out: Maximum % inhibition NaV1.6, peptide at 100 μM
rNaV1.8 = rNaV1.8 (Rattus norvegicus, UniProt Q62968); assay: Two-electrode voltage-clamp on Xenopus laevis oocytes expressing NaV1.8; conditions: for inhibition at 100 µM: read-out: Maximum % inhibition NaV1.8
rNaV1.8, sequence (Q62968 whole entry): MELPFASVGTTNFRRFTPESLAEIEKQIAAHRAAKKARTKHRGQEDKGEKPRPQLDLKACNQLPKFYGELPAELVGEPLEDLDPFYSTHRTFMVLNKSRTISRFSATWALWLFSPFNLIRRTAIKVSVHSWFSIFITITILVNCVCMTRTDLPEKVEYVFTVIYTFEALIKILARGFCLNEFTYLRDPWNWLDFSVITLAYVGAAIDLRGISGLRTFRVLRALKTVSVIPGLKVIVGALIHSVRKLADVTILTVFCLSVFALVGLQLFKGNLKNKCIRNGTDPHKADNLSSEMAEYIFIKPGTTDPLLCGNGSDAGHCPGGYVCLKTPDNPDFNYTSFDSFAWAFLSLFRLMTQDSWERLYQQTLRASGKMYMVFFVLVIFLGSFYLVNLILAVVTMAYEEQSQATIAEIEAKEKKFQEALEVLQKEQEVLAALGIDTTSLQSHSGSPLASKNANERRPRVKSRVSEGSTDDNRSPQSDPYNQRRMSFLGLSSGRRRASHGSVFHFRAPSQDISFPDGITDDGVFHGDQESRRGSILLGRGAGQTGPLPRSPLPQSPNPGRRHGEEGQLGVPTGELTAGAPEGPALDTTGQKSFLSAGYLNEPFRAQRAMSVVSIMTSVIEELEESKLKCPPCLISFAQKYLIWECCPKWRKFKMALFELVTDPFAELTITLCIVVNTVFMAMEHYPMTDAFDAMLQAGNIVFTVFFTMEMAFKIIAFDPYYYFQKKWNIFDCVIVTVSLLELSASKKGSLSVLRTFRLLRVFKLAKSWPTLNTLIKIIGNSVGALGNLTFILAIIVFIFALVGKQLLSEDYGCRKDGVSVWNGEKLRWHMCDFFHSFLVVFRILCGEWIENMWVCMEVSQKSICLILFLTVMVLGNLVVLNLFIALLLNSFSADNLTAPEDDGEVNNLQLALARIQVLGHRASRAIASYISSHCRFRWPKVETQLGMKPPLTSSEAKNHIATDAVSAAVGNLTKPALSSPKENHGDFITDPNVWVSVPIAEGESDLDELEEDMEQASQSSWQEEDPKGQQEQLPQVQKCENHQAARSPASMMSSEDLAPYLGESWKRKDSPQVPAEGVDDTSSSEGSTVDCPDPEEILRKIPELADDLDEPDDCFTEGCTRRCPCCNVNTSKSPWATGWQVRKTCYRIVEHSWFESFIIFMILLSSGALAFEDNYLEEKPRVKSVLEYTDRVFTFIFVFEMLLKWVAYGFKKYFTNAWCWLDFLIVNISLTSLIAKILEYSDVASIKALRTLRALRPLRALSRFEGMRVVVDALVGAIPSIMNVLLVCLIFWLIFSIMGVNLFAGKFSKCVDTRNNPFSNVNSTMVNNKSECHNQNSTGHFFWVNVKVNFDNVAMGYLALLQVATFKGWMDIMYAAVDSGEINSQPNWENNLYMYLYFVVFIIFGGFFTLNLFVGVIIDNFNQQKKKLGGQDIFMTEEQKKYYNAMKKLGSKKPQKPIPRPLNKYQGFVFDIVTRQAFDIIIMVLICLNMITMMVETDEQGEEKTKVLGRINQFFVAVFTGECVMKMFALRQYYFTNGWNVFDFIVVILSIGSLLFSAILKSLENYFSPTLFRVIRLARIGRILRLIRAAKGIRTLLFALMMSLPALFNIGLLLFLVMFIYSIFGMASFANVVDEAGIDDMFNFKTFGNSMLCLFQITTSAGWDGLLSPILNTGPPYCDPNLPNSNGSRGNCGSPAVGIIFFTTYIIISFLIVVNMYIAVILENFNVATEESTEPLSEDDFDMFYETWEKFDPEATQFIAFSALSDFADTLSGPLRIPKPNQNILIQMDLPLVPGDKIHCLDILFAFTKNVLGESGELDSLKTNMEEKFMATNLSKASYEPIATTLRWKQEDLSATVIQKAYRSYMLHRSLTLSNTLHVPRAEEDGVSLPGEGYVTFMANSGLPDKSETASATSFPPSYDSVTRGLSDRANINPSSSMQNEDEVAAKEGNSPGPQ

SMILES: CC(=O)N[C@H]1CSSC[C@@H](C(N)=O)NC(=O)[C@H](CCCNC(=N)N)NC(=O)[C@H](CC(N)=O)NC(=O)[C@H](Cc2c[nH]c3ccccc23)NC(=O)[C@H](CCCNC(=N)N)NC(=O)[C@H](C)NC(=O)[C@H](Cc2c[nH]c3ccccc23)NC(=O)[C@H](CCCNC(=N)N)NC(=O)[C@H](CCCNC(=N)N)NC1=O [PnCS1AcAm, Ac-CRRWARWNRC ^*] (Ac-CRRWARWNRC-NH2; disulfide 1-10)
- IC50 (hNaV1.5): > 100 µM
- inhibition at 100 µM (hNaV1.5): 0%
- IC50 (rNaV1.4): > 100 µM
- inhibition at 100 µM (rNaV1.4): 0%
- IC50 (rNaV1.2): > 100 µM
- inhibition at 100 µM (rNaV1.2): 0%
- IC50 (mNaV1.6): > 100 µM
- inhibition at 100 µM (mNaV1.6): 0%
- IC50 (rNaV1.8): > 100 µM
- inhibition at 100 µM (rNaV1.8): 0%

SMILES: N=C(N)NCCC[C@@H]1NC(=O)[C@H](CC(N)=O)NC(=O)[C@H](Cc2c[nH]c3ccccc23)NC(=O)[C@H](CCCNC(=N)N)NC(=O)[C@H](CCC(=O)O)NC(=O)[C@H](Cc2c[nH]c3ccccc23)NC(=O)[C@H](CCCNC(=N)N)NC(=O)[C@H](CCCNC(=N)N)NC(=O)[C@@H](N)CSSC[C@@H](C(N)=O)NC1=O [PnCS1[A5E], CRRWERWNRC ^*] (H-CRRWERWNRC-NH2; disulfide 1-10)
- IC50 (hNaV1.5): 8.8 ± 3.7 µM
- inhibition at 100 µM (hNaV1.5): 73%
- IC50 (rNaV1.4): > 100 µM
- inhibition at 100 µM (rNaV1.4): 35%
- IC50 (rNaV1.2): 1.4 ± 0.2 µM
- inhibition at 100 µM (rNaV1.2): 81%
- IC50 (mNaV1.6): 1.8 ± 0.5 µM
- inhibition at 100 µM (mNaV1.6): 82%
- IC50 (rNaV1.8): > 100 µM
- inhibition at 100 µM (rNaV1.8): 0%

SMILES: C[C@@H]1NC(=O)[C@H](Cc2c[nH]c3ccccc23)NC(=O)[C@H](CCCNC(=N)N)NC(=O)[C@H](CCCCN)NC(=O)[C@@H](N)CSSC[C@@H](C(N)=O)NC(=O)[C@H](CCCNC(=N)N)NC(=O)[C@H](CC(N)=O)NC(=O)[C@H](Cc2c[nH]c3ccccc23)NC(=O)[C@H](CCCNC(=N)N)NC1=O [PnCS1[R2K], CKRWARWNRC ^*] (H-CKRWARWNRC-NH2; disulfide 1-10)
- IC50 (hNaV1.5): 2.5 ± 0.5 µM
- inhibition at 100 µM (hNaV1.5): 82%
- IC50 (rNaV1.4): 0.8 ± 0.3 µM
- inhibition at 100 µM (rNaV1.4): 93%
- IC50 (rNaV1.2): 1.1 ± 0.5 µM
- inhibition at 100 µM (rNaV1.2): 92%
- IC50 (mNaV1.6): 0.6 ± 0.2 µM
- inhibition at 100 µM (mNaV1.6): 85%
- IC50 (rNaV1.8): > 100 µM
- inhibition at 100 µM (rNaV1.8): 0%

SMILES: C[C@@H]1NC(=O)[C@H](Cc2c[nH]c3ccccc23)NC(=O)[C@H](CCCNC(=N)N)NC(=O)[C@H](CCCNC(=N)N)NC(=O)[C@@H](N)CSSC[C@@H](C(N)=O)NC(=O)[C@H](CCCNC(=N)N)NC(=O)[C@H](CC(N)=O)NC(=O)[C@H](CCC(=O)O)NC(=O)[C@H](CCCNC(=N)N)NC1=O [PnCS1[W7E], CRRWARENRC ^*] (H-CRRWARENRC-NH2; disulfide 1-10)
- IC50 (hNaV1.5): > 100 µM
- inhibition at 100 µM (hNaV1.5): 33%
- IC50 (rNaV1.4): > 100 µM
- inhibition at 100 µM (rNaV1.4): 42%
- IC50 (rNaV1.2): > 100 µM
- inhibition at 100 µM (rNaV1.2): 21%
- IC50 (mNaV1.6): > 100 µM
- inhibition at 100 µM (mNaV1.6): 27%
- IC50 (rNaV1.8): > 100 µM
- inhibition at 100 µM (rNaV1.8): 0%

SMILES: C[C@@H]1NC(=O)[C@H](Cc2c[nH]c3ccccc23)NC(=O)[C@H](CCC(=O)O)NC(=O)[C@H](CCCNC(=N)N)NC(=O)[C@@H](N)CSSC[C@@H](C(N)=O)NC(=O)[C@H](CCCNC(=N)N)NC(=O)[C@H](CC(N)=O)NC(=O)[C@H](Cc2c[nH]c3ccccc23)NC(=O)[C@H](CCCNC(=N)N)NC1=O [PnCS1[R3E], CREWARWNRC ^*] (H-CREWARWNRC-NH2; disulfide 1-10)
- IC50 (hNaV1.5): > 100 µM
- inhibition at 100 µM (hNaV1.5): 21%
- IC50 (rNaV1.4): > 100 µM
- inhibition at 100 µM (rNaV1.4): 36%
- IC50 (rNaV1.2): > 100 µM
- inhibition at 100 µM (rNaV1.2): 52%
- IC50 (mNaV1.6): > 100 µM
- inhibition at 100 µM (mNaV1.6): 24%
- IC50 (rNaV1.8): > 100 µM
- inhibition at 100 µM (rNaV1.8): 0%

SMILES: C[C@@H]1NC(=O)[C@H](Cc2c[nH]c3ccccc23)NC(=O)[C@H](CCCNC(=N)N)NC(=O)[C@H](CCCNC(=N)N)NC(=O)[C@@H](N)CSSC[C@@H](C(N)=O)NC(=O)[C@H](CCCNC(=N)N)NC(=O)[C@H](CCCCN)NC(=O)[C@H](Cc2c[nH]c3ccccc23)NC(=O)[C@H](CCCNC(=N)N)NC1=O [PnCS1[N8K], CRRWARWKRC ^*] (H-CRRWARWKRC-NH2; disulfide 1-10)
- IC50 (hNaV1.5): 2.8 ± 0.5 µM
- inhibition at 100 µM (hNaV1.5): 86%
- IC50 (rNaV1.4): 0.9 ± 0.3 µM
- Maximum % inhibition NaV1.4 (rNaV1.4): 96%
- inhibition at 100 µM (rNaV1.4): > 95%
- IC50 (rNaV1.2): 4.4 ± 0.8 µM
- inhibition at 100 µM (rNaV1.2): 81%
- IC50 (mNaV1.6): 0.5 ± 0.2 µM
- inhibition at 100 µM (mNaV1.6): 92%
- IC50 (rNaV1.8): > 100 µM
- inhibition at 100 µM (rNaV1.8): 0%

SMILES: C[C@@H]1NC(=O)[C@H](Cc2c[nH]c3ccccc23)NC(=O)[C@H](CCCNC(=N)N)NC(=O)[C@H](CCCNC(=N)N)NC(=O)[C@@H](N)CSSC[C@@H](C(N)=O)NC(=O)[C@H](CCC(=O)O)NC(=O)[C@H](CC(N)=O)NC(=O)[C@H](Cc2c[nH]c3ccccc23)NC(=O)[C@H](CCCNC(=N)N)NC1=O [PnCS1[R9E], CRRWARWNEC ^*] (H-CRRWARWNEC-NH2; disulfide 1-10)
- IC50 (hNaV1.5): > 100 µM
- inhibition at 100 µM (hNaV1.5): 40%
- IC50 (rNaV1.4): > 100 µM
- inhibition at 100 µM (rNaV1.4): 0%
- IC50 (rNaV1.2): > 100 µM
- inhibition at 100 µM (rNaV1.2): 49%
- IC50 (mNaV1.6): > 100 µM
- inhibition at 100 µM (mNaV1.6): 11%
- IC50 (rNaV1.8): > 100 µM
- inhibition at 100 µM (rNaV1.8): 0%

SMILES: CC(=O)N[C@H]1CSSC[C@@H](C(=O)O)NC(=O)[C@H](CCCNC(=N)N)NC(=O)[C@H](CC(N)=O)NC(=O)[C@H](Cc2c[nH]c3ccccc23)NC(=O)[C@H](CCCNC(=N)N)NC(=O)[C@H](C)NC(=O)[C@H](Cc2c[nH]c3ccccc23)NC(=O)[C@H](CCCNC(=N)N)NC(=O)[C@H](CCCNC(=N)N)NC1=O [PnCS1Ac, Ac-CRRWARWNRC] (Ac-CRRWARWNRC-OH; disulfide 1-10)
- inhibition at 100 µM (hNaV1.5): 0%
- inhibition at 100 µM (rNaV1.4): 0%
- inhibition at 100 µM (rNaV1.2): 0%
- inhibition at 100 µM (mNaV1.6): 0%
- inhibition at 100 µM (rNaV1.8): 0%

SMILES: C[C@@H]1NC(=O)[C@H](CCCNC(=N)N)NC(=O)[C@H](C)NC(=O)[C@H](Cc2c[nH]c3ccccc23)NC(=O)[C@H](CCCNC(=N)N)NC(=O)[C@H](CCCNC(=N)N)NC(=O)[C@@H](N)CSSC[C@@H](C(N)=O)NC(=O)[C@H](CCCNC(=N)N)NC(=O)[C@H](CC(N)=O)NC1=O [PnCS1[W7A], CRRWARANRC ^*] (H-CRRWARANRC-NH2; disulfide 1-10)
- IC50 (hNaV1.5): 6.8 ± 1.3 µM
- inhibition at 100 µM (hNaV1.5): 78%
- IC50 (rNaV1.4): 1.1 ± 0.4 µM
- Maximum % inhibition NaV1.4 (rNaV1.4): 96%
- inhibition at 100 µM (rNaV1.4): > 95%
- IC50 (rNaV1.2): 0.8 ± 0.3 µM
- inhibition at 100 µM (rNaV1.2): 92%
- IC50 (mNaV1.6): 11.4 ± 3.6 µM
- inhibition at 100 µM (mNaV1.6): 57%
- IC50 (rNaV1.8): > 100 µM
- inhibition at 100 µM (rNaV1.8): 0%

SMILES: C[C@@H]1NC(=O)[C@H](Cc2c[nH]c3ccccc23)NC(=O)[C@H](C)NC(=O)[C@H](CCCNC(=N)N)NC(=O)[C@@H](N)CSSC[C@@H](C(N)=O)NC(=O)[C@H](CCCNC(=N)N)NC(=O)[C@H](CC(N)=O)NC(=O)[C@H](Cc2c[nH]c3ccccc23)NC(=O)[C@H](CCCNC(=N)N)NC1=O [PnCS1[R3A], CRAWARWNRC ^*] (H-CRAWARWNRC-NH2; disulfide 1-10)
- IC50 (hNaV1.5): > 100 µM
- inhibition at 100 µM (hNaV1.5): 51%
- IC50 (rNaV1.4): 1.6 ± 0.5 µM
- inhibition at 100 µM (rNaV1.4): 89%
- IC50 (rNaV1.2): 1.8 ± 0.3 µM
- inhibition at 100 µM (rNaV1.2): 86%
- IC50 (mNaV1.6): 1.9 ± 0.4 µM
- inhibition at 100 µM (mNaV1.6): 87%
- IC50 (rNaV1.8): > 100 µM
- inhibition at 100 µM (rNaV1.8): 0%
